Reference: doi:10.1101/2025.02.28.640722v1 (biorxiv, 2025)
Square brackets hold non-standard residues; d marks the D form. Peptide text beside a SMILES is read from it. * marks the point of attachment. hCha = N[C@@H](CCC1CCCCC1)C(=O)O; Bz = O=C(c1ccccc1)*

Biological target: Human mitochondrial ClpP (hClpP) (Homo sapiens, UniProt Q16740)
Experiment: peptidase activation
Type: biochemical
Conditions: activator at 1.5 mM, 200 nM human ClpP, no ATPase partner

Sequence of Human mitochondrial ClpP (hClpP) (Q16740 57-277): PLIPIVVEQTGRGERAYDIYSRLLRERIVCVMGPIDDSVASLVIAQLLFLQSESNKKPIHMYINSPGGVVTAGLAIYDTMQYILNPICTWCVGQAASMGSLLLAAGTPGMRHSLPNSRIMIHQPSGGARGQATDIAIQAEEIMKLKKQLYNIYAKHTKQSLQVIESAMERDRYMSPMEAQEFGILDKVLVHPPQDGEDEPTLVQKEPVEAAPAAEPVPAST

For `CC[C@H](C)[C@H](NC(=O)[C@H](CCC1CCCCC1)NC(=O)c1ccccc1)C(=O)O` [Bz-ChEtg-Ile] (Bz-[hCha]-Ile-OH), which fold activation is on record?
Its fold activation is over 15 times.
